Test results: article PMC9436924, “A gene cluster in Ginkgo biloba encodes unique multifunctional cytochrome P450s that initiate ginkgolide biosynthesis” (Nature Communications, 2022)

Tests used:
GbLPS = target: T1, GbLPS (Ginkgo biloba, UniProt Q947C4); assay: expression in tobacco leaves, GC-MS of products; assay type: cell-based; settings: substrate made in situ with CfDXS and CfGGPPS
T1 construct: gene LPS; transiently expressed in Nicotiana benthamiana leaves, plastidial; (in yeast a truncated, codon-optimised MBP fusion was used)
T1 sequence (Q947C4 60-873): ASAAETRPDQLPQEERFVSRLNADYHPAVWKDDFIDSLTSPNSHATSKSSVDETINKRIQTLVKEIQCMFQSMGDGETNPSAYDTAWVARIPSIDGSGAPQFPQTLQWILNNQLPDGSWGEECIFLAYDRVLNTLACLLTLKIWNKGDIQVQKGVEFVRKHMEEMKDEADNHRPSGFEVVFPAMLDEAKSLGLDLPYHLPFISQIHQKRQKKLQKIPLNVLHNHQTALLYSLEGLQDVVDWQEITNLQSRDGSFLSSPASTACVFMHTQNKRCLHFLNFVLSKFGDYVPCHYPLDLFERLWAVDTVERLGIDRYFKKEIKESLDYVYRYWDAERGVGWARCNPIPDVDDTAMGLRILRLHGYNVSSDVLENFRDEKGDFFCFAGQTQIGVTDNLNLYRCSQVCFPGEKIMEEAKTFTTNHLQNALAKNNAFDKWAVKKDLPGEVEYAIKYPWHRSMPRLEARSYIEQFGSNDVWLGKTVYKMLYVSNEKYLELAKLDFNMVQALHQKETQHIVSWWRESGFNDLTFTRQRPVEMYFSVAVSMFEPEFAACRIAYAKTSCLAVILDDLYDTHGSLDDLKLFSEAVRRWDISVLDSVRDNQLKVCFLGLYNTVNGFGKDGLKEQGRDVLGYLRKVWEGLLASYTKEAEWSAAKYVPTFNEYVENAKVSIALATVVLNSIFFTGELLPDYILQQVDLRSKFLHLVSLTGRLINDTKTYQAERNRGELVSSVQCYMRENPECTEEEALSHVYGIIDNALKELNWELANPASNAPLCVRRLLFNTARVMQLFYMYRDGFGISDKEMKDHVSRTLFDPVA

GbCYP720B31 = target: T2, GbCYP720B31 (Ginkgo biloba, UniProt Z9PDJ7KIF4); assay: pathway co-expression in tobacco and yeast, LC-HRMS, NMR of product glucosides; assay type: cell-based; settings: proposed substrate made in situ by upstream enzymes, free form not detected
T2 construct: G. biloba cDNA, gene on chromosome 4; expressed in Nicotiana benthamiana and Saccharomyces cerevisiae; GenBank numbers ON759313-ON759329 printed only as a collective set
T2 sequence (Z9PDJ7KIF4 1-483): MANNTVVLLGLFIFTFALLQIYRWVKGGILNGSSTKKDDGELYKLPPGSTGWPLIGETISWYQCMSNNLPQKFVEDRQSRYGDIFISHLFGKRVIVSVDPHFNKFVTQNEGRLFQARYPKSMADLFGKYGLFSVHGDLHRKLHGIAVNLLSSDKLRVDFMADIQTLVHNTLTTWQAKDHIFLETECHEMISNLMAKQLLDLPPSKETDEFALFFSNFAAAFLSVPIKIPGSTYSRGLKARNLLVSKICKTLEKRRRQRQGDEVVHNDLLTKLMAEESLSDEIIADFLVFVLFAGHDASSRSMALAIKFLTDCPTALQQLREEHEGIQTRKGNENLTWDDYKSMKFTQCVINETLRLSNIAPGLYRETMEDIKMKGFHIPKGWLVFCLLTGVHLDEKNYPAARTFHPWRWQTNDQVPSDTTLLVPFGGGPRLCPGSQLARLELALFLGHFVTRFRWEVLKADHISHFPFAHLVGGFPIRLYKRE

## CC(C)=CCC/C(C)=C/CC/C(C)=C/CC/C(C)=C/COP(=O)(O)OP(=O)(O)O [geranylgeranyl pyrophosphate]
GbLPS
  expression in tobacco leaves, GC-MS of products: levopimaradiene synthase (GbLPS) converts GGPP to diterpene hydrocarbon levopimaradiene

## CC(=CC(=O)O)C(CCc1cc(O)c(C(C)C)cc1O)C(C)(C)C (centres unmarked) [ginkgosinoic acid C]
GbCYP720B31
  pathway co-expression in tobacco and yeast, LC-HRMS, NMR of product glucosides: we propose that GbCYP720B31 hydroxylates ginkgosinoic acid C at position C20
